Assay results from ChEMBL document CHEMBL6074657, “Discovery and Synthesis of Heterobifunctional Degraders of Rearranged during Transfection (RET) Kinase” (J Med Chem, 2024).

Legend:
in vitro [1] = conditions: mouse, liver microsomes
in vitro [2] = conditions: rat, liver microsomes
in vitro [3] = conditions: human, liver microsomes
in vitro [4] = conditions: mouse, liver microsomes; remark: listed apart in the source
in vitro [5] = conditions: human, liver microsomes; remark: listed apart in the source
[6] = Intrinsic clearance in mouse; type: ADME, organism-based; conditions: in vivo
[7] = Cmax in athymic nude mouse at 75 mg/kg, sc measured after 24 hrs by LC/MS analysis; type: ADME, organism-based; conditions: in vivo
[8] = Cmax in athymic nude mouse at 8 mg/kg, sc measured after 24 hrs by LC/MS analysis; type: ADME, organism-based; conditions: in vivo
[9] = Bioavailability in mouse at 50 mg/kg, sc; type: ADME, organism-based; conditions: in vivo
[10] = Cmax in athymic nude mouse at 25 mg/kg, sc measured after 24 hrs by LC/MS analysis; type: ADME, organism-based; conditions: in vivo
[11] = Metabolic stability in rat liver microsomes assessed as half-life; type: ADME, Microsome
[12] = Tmax in athymic nude mouse at 8 to 75 mg/kg, sc by LC/MS analysis; type: ADME, organism-based; conditions: in vivo, dose 8-75 mg/kg

| remaining at 10 min (in vitro [1]) [%] | remaining at 10 min (in vitro [2]) [%] | remaining at 10 min (in vitro [3]) [%] | half-life (in vitro [4]) [h] | half-life (in vitro [5]) [h] | CLint scaled [6] [mL/min/kg] | Cmax [7] [µM] | Cmax [8] [µM] | bioavailability [9] [%] | Cmax [10] [µM] | half-life [11] [h] | Tmax [12] [h] | SMILES |
| --- | --- | --- | --- | --- | --- | --- | --- | --- | --- | --- | --- | --- |
| 63 | 89 | 58 |  |  |  |  |  |  |  |  |  | COc1ccc(CN2[C@@H]3C[C@H]2CN(c2ccc(-c4cc(OCC(C)(C)O)cn5ncc(C#N)c45)cn2)C3)cn1 |
|  |  |  | 1.57 | > 2 |  |  |  |  |  |  |  | CCOc1cc(-c2ccc(N3CCC(CN4CCC(C(=O)N5CC(N6CCC(c7ccc8c(c7)C(=O)N(C7CCC(=O)NC7=O)C8)CC6)C5)CC4)(NC(=O)c4cc(F)ccc4F)CC3)nc2)c2c(C#N)cnn2c1 (stereo not given) |
| 88 | 75 | 81 | 1.73 | 0.7 |  |  |  |  |  |  |  | CCOc1cc(-c2ccc(N3CCC(CN4CCN(C(=O)CCN5CCC(c6ccc7c(N8CCC(=O)NC8=O)nn(C)c7c6)CC5)CC4)(NC(=O)c4cc(F)ccc4F)CC3)nc2)c2c(C#N)cnn2c1 |
| 100 | 100 | 98 | > 2 | 1.28 |  |  |  |  |  |  |  | CCOc1cc(-c2ccc(N3CCC(CN4CCN(C(=O)CCN5CCC(c6ccc7c(c6)C(=O)N([C@@H]6CCC(=O)NC6=O)C7)CC5)CC4)(NC(=O)c4cc(F)ccc4F)CC3)nc2)c2c(C#N)cnn2c1 |
| 80 | 100 | 100 | > 2 | > 2 |  |  |  |  |  |  |  | CCOc1cc(-c2ccc(N3CCC(CN4CCN(C(=O)CCN5CCC(c6ccc7c(c6)C(=O)N([C@H]6CCC(=O)NC6=O)C7)CC5)CC4)(NC(=O)c4cc(F)ccc4F)CC3)nc2)c2c(C#N)cnn2c1 |
| 82 | 94 | 85 | 0.95 | 1.02 |  |  |  |  |  |  |  | CCOc1cc(-c2ccc(N3CCC(CN4CCN(C(=O)CCN5CCC(c6ccc7c(c6)CN(C6CCC(=O)NC6=O)C7=O)CC5)CC4)(NC(=O)c4cc(F)ccc4F)CC3)nc2)c2c(C#N)cnn2c1 (stereo not given) |
| 80 | 88 | 78 | 1.55 | 0.583 |  |  |  |  |  |  |  | CCOc1cc(-c2ccc(N3CCC(CN4CCN(C(=O)CCCCCCN5CCC(c6ccc7c(c6)CN(C6CCC(=O)NC6=O)C7=O)CC5)CC4)(NC(=O)c4cc(F)ccc4F)CC3)nc2)c2c(C#N)cnn2c1 (stereo not given) |
| 85 | 100 | 88 | 1.42 | 1.4 |  |  |  |  |  |  |  | CCOc1cc(-c2ccc(N3CCC(CN4CCN(C(=O)CCCCN5CCC(c6ccc7c(c6)CN(C6CCC(=O)NC6=O)C7=O)CC5)CC4)(NC(=O)c4cc(F)ccc4F)CC3)nc2)c2c(C#N)cnn2c1 (stereo not given) |
| 68 | 81 | 10 |  |  |  |  |  |  |  |  |  | CCOc1cc(-c2ccc(N3CCC(COCC(=O)N4CCC(CN5CCN(c6ccc7c(c6)CN(C6CCC(=O)NC6=O)C7=O)CC5)CC4)(NC(=O)c4cc(F)ccc4F)CC3)nc2)c2c(C#N)cnn2c1 (stereo not given) |
| 70 | 84 | 40 | 0.467 | 0.133 | 32 |  |  |  |  |  |  | CCOc1cc(-c2ccc(N3CCC(CN4CCN(C(=O)CCCCCCN5CCN(c6ccc7c(c6)CN(C6CCC(=O)NC6=O)C7=O)CC5)CC4)(NC(=O)c4cc(F)ccc4F)CC3)nc2)c2c(C#N)cnn2c1 (stereo not given) |
| 85 | 89 | 82 | 0.933 | 0.867 |  |  |  |  |  |  |  | CCOc1cc(-c2ccc(N3CCC(CN4CCN(C(=O)CCN5CCC(c6ccc7c(c6)C(=O)N(C6CCC(=O)NC6=O)C7)CC5)CC4)(NC(=O)c4cc(F)ccc4F)CC3)nc2)c2c(C#N)cnn2c1 (stereo not given) |
| 81 | 100 | 84 | 1.53 | > 2 |  |  |  |  |  |  |  | CCOc1cc(-c2ccc(N3CCC(CN4CCN(C(=O)C5CC6(C5)CC(N5CCN(c7ccc8c(c7)CN(C7CCC(=O)NC7=O)C8=O)CC5)C6)CC4)(NC(=O)c4cc(F)ccc4F)CC3)nc2)c2c(C#N)cnn2c1 (stereo not given) |
|  |  |  | > 2 | 1.48 |  | 8.09 | 0.708 | 30 | 4.3 | > 2 | 1 | CCOc1cc(-c2ccc(N3CCC(CN4CCN(C(=O)C5CC(N6CCC(c7ccc8c(c7)C(=O)N(C7CCC(=O)NC7=O)C8)CC6)C5)CC4)(NC(=O)c4cc(F)ccc4F)CC3)nc2)c2c(C#N)cnn2c1 (stereo not given) |
| 100 | 97 | 79 |  |  |  |  |  |  |  |  |  | CCOc1cc(-c2ccc(N3CCC(CN4CCN(C(=O)CCN5CCC(c6ccc7c(c6)C(=O)N(C6CCC(=O)NC6=O)C7)CC5)CC4)(NC(=O)c4ncccc4F)CC3)nc2)c2c(C#N)cnn2c1 (stereo not given) |
